The values that follow come from article PMC7956643, “Synthesis of Novel Pyrido[1,2-c]pyrimidine Derivatives with 6-Fluoro-3-(4-piperidynyl)-1,2-benzisoxazole Moiety as Potential SSRI and 5-HT1A Receptor Ligands” (International Journal of Molecular Sciences, 2021).

By melting point is commonly meant the temperature of the solid-liquid transition. For orientation: Ki means the dissociation constant of the complex between target and ligand, obtained from inhibition or displacement. A low value points to a stronger hold on the target.

Structures are written as SMILES. Marks after values point to notes of the source that are not given here.

The target of one data set is T1, human 5-HT1A receptor (Homo sapiens, UniProt P08908).
T1 construct: purchased PerkinElmer; host or cells: CHO-K1 cells, stably transfected
T1 sequence (P08908 1-422): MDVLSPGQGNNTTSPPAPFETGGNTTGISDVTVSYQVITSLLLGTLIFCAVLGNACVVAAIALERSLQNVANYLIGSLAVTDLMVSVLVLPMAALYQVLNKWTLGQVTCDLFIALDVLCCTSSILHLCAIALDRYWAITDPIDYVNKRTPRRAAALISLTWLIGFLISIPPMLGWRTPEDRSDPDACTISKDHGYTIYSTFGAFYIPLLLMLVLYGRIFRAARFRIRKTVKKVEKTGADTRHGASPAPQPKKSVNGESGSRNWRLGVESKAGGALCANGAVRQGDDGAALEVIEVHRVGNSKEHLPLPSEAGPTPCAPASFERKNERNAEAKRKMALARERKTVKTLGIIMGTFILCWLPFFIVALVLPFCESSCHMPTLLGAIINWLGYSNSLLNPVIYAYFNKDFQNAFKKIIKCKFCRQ
The data set can be described thus: 5-HT1A radioligand binding assay. The note with it: [3H]-8-OH-DPAT 1 nM; membranes from CHO-K1 cells with human 5-HT1A receptor. The method, then:
Radioligand binding was performed using membranes from CHO-K1 cells stably transfected with the human 5-HT1A receptor (PerkinElmer, Fremont, CA, USA). All assays were carried out in duplicate. Then, 50 µL working solution of the tested compounds, 50 µL [^3H]-8-OH-DPAT (final concentration 1 nM) and 150 µL diluted membranes (20 µg protein per well) prepared in assay buffer (50 mM Tris, pH 7.4, 10 mM MgSO4, 0.5 mM EDTA, 0.1% ascorbic acid) were transferred to a polypropylene 96-well microplate using 96-wells pipetting station Rainin Liquidator (MettlerToledo, Columbus, OH, USA). […] The reaction was terminated by rapid filtration through GF/B filter mate, presoaked with 0.5% polyethyleneimine for 30 min. Ten rapid washes with 200 µL 50 mM Tris buffer (4 °C, pH 7.4) were performed using an automated harvester system—Harvester-96 MACH III FM (Tomtec, Hamden, CT, USA). […] Data were fitted to a one-site curve-fitting equation with Prism 6 (GraphPad Software, San Diego, CA, USA) and Ki values were estimated from the Cheng–Prusoff equation.

A further data set concerns the target T2, SERT protein (Rattus norvegicus, UniProt P31652).
T2 construct: from tissue; host or cells: rat cortex
The experiment in a line: SERT radioligand binding assay. The note with it: [3H]-citalopram 1.0 nM; rat cortex tissue. How it is done:
Radioligand binding was performed using rat cortex tissue. All assays were carried out in duplicate. First, 50 µL working solution of the tested compounds, 50 µL [^3H]-citalopram (final concentration 1.0 nM) and 150 µL tissue suspension, prepared in assay buffer (50 mM Tris. pH 7.7; 150 mM NaCl; 5 mM KCl), were transferred to a polypropylene 96-well microplate using 96-wells pipetting station Rainin Liquidator (MettlerToledo). […] The reaction was terminated by rapid filtration through GF/B filter mate presoaked with 0.3% polyethyleneimine for 30 min. Ten rapid washes with 200 µL 50 mM Tris buffer (4 °C, pH 7.7) were performed using an automated harvester system—Harvester-96 MACH III FM (Tomtec). […] Data were fitted to a one-site curve-fitting equation with Prism 6 (GraphPad Software) and Ki values were estimated from the Cheng–Prusoff equation.

The next data set deals with T3, 5-HT1A receptor (Mus musculus, UniProt Q64264).
T3 construct: from tissue; host or cells: whole animal, male CD-1 mice
T3 sequence (Q64264 1-421): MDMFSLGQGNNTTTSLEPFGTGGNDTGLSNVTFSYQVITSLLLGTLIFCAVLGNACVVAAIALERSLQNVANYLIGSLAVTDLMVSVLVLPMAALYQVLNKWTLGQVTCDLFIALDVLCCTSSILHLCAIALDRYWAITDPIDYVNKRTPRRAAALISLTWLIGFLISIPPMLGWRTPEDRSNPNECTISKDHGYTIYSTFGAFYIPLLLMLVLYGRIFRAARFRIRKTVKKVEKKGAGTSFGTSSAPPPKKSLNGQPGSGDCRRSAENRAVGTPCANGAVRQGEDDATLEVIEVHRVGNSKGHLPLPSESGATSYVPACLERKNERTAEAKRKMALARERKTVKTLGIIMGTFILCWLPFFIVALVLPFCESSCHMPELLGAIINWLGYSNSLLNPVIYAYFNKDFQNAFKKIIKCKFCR
The experiment in a line: Body temperature in mice (induced hypothermia). In kind it is in vivo, CD-1 mice. The note with it: mice, 5 mg/kg sc. The method, then:
The experiments were performed on male CD-1 mice (23–40 g). The animals were kept at room temperature (21 ± 2 °C) on a natural day-night cycle (March–October) and housed under standard laboratory conditions. They had free access to food and tap water before the experiment. Each experimental group consisted of 6–8 animals/dose. All the animals were used only once. 8-Hydroxy-2-(di-n-propylamino)tetralin hydro-bromide (8-OH-DPAT, Research Biochemical Inc.) was used as aqueous solution. […] Vehicle group was administered as 10% aqueous solution of dimethyl sulphoxide (DMSO). 8-OH-DPAT was injected subcutaneously (sc); 6a and 7g were given intraperitoneally (ip) in a volume of 10 mL/kg/mice. The obtained data were analyzed by Dunnett’s test (one drug administration) or by the Newman–Keuls test (two drugs administrations). Forced swim test: the obtained data was evaluated by one-way analysis of variance (ANOVA) followed by the Dunnett’s multiple comparisons test: p < 0.05 was considered significant.
The results were expressed as a change in body temperature (Δt) with respect to the basal body temperature, as measured at the beginning of the experiment.

T2 sequence (P31652 whole entry): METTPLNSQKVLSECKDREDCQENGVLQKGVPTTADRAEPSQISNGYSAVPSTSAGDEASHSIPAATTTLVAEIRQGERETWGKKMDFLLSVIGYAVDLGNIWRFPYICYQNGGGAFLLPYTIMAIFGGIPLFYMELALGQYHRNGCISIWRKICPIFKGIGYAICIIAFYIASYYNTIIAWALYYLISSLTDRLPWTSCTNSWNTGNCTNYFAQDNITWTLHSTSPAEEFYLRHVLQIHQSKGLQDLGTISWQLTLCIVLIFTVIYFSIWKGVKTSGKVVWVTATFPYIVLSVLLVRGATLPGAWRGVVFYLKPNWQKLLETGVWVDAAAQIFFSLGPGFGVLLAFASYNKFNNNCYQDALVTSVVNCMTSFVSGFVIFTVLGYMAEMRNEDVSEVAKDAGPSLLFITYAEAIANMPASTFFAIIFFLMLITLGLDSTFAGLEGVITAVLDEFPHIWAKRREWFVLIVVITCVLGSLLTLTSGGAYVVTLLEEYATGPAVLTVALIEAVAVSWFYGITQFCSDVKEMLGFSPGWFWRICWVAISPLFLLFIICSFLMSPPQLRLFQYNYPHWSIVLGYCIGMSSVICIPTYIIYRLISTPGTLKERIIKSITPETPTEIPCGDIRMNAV

On to `Cc1ccccc1-c1c(=O)n(CCCCN2CCC(c3noc4cc(F)ccc34)CC2)c(=O)n2ccccc12` [Compound 6b, 4-(2-Methylphenyl)-2-{4-[4-(6-fluoro-1,2-benzoxazol)-1-piperidyl]butyl}-pyrido[1,2-c]pyrimidine-1,3-dione], for which the melting point was 120 to 122 °C. On human 5-HT1A receptor, this compound gave a Ki of 30 ± 3.5 nM. Also, at SERT protein, the Ki is above 5000 nM.

For the compound `COc1ccccc1-c1c(=O)n(CCCCN2CCC(c3noc4cc(F)ccc34)CC2)c(=O)n2ccccc12` [Compound 6c, 4-(2-Methoxphenyl)-2-{4-[4-(6-fluoro-1,2-benzoxazol)-1-piperidyl]butyl}-pyrido[1,2-c]pyrimidine-1,3-dione], the melting point lay within 65 to 70 °C. The compound also returned a Ki on human 5-HT1A receptor of 7 ± 1 nM. Also, the Ki on SERT protein is above 5000 nM.

`O=c1c(-c2ccccc2F)c2ccccn2c(=O)n1CCCCN1CCC(c2noc3cc(F)ccc23)CC1` [Compound 6e, 4-(2-Fluorophenyl)-2-{4-[4-(6-fluoro-1,2-benzoxazol)-1-piperidyl]butyl}-pyrido[1,2-c]pyrimidine-1,3-dione] came in with a melting point of 58 to 62 °C. This compound also yielded a Ki on human 5-HT1A receptor of 15 ± 0.6 nM. Besides, the Ki on SERT protein is above 1000 nM.

As for `Cc1ccc(-c2c(=O)n(CCCCN3CCC(c4noc5cc(F)ccc45)CC3)c(=O)n3ccccc23)cc1` [Compound 6f, 4-(4-Methylphenyl)-2-{4-[4-(6-fluoro-1,2-benzoxazol)-1-piperidyl]butyl}-pyrido[1,2-c]pyrimidine-1,3-dione], the melting point fell in the range of 158 to 159 °C. On human 5-HT1A receptor, this compound gave a Ki of 74 ± 4 nM. At SERT protein, this compound returned a Ki of 772 ± 36 nM.

The compound `COc1ccc(-c2c(=O)n(CCCCN3CCC(c4noc5cc(F)ccc45)CC3)c(=O)n3ccccc23)cc1` [Compound 6g, 4-(4-Methoxyphenyl)-2-{4-[4-(6-fluoro-1,2-benzoxazol)-1-piperidyl]butyl}-pyrido[1,2-c]pyrimidine-1,3-dione] returned a melting point of 163 to 166 °C. For the same compound, the Ki at human 5-HT1A receptor was 10 ± 1.1 nM. For the same compound, the affinity on SERT protein corresponds to a Ki of 730 ± 79 nM.

For `O=c1c(-c2ccc(Cl)cc2)c2ccccn2c(=O)n1CCCCN1CCC(c2noc3cc(F)ccc23)CC1` [Compound 6h, 4-(4-Chlorophenyl)-2-{4-[4-(6-fluoro-1,2-benzoxazol)-1-piperidyl]butyl}-pyrido[1,2-c]pyrimidine-1,3-dione], the melting point lay in the range of 152 to 155 °C. In addition, at human 5-HT1A receptor, the affinity corresponds to a Ki of 21 ± 1.5 nM. This compound gave a Ki on SERT protein of 310 ± 1 nM.

For `O=c1c(-c2ccc(F)cc2)c2ccccn2c(=O)n1CCCCN1CCC(c2noc3cc(F)ccc23)CC1` [Compound 6i, 4-(4-Fluorophenyl)-2-{4-[4-(6-fluoro-1,2-benzoxazol)-1-piperidyl]butyl}-pyrido[1,2-c]pyrimidine-1,3-dione], the melting point lay within 102 to 107 °C. Besides, the Ki at human 5-HT1A receptor was 17 ± 2 nM. The same compound showed a Ki at SERT protein of 342 ± 28.8 nM.

In turn, `O=c1c(-c2ccccc2)c2n(c(=O)n1CCCCN1CCC(c3noc4cc(F)ccc34)CC1)CCCC2` [Compound 7a, 4-Phenyl-2-{4-[4-(6-fluoro-1,2-benzoxazol-3-yl)-1-piperidyl]butyl}-5,6,7,8-tetrahydro-pyrido[1,2-c]pyrimidine-1,3-dione] displayed a melting point of 110 to 113 °C. Besides, the Ki on human 5-HT1A receptor came out at 27 ± 2 nM. In addition, the Ki on SERT protein amounted to 520 ± 58.8 nM.

In the case of `Cc1ccccc1-c1c2n(c(=O)n(CCCCN3CCC(c4noc5cc(F)ccc45)CC3)c1=O)CCCC2` [Compound 7b, 4-(2-Methylphenyl)-2-{4-[4-(6-fluoro-1,2-benzoxazol)-1-piperidyl]butyl}-5,6,7,8-tetrahydro-pyrido[1,2-c]pyrimidine-1,3-dione], the figures for the Ki at human 5-HT1A receptor and at SERT protein were 35 ± 3.5 nM and above 1000 nM, respectively.

With `COc1ccccc1-c1c2n(c(=O)n(CCCCN3CCC(c4noc5cc(F)ccc45)CC3)c1=O)CCCC2` [Compound 7c, 4-(2-Methoxphenyl)-2-{4-[4-(6-fluoro-1,2-benzoxazol)-1-piperidyl]butyl}-5,6,7,8-tetrahydro-pyrido[1,2-c]pyrimidine-1,3-dione], the Ki at human 5-HT1A receptor is 62 ± 6 nM; at SERT protein, 878 ± 88 nM.

`O=c1c(-c2ccccc2Cl)c2n(c(=O)n1CCCCN1CCC(c3noc4cc(F)ccc34)CC1)CCCC2` [Compound 7d, 4-(2-Chlorophenyl)-2-{4-[4-(6-fluoro-1,2-benzoxazol)-1-piperidyl]butyl}-5,6,7,8-tetrahydro-pyrido[1,2-c]pyrimidine-1,3-dione]: the Ki is 71 ± 6.9 nM at human 5-HT1A receptor and 310 ± 34.5 nM on SERT protein.

As to `O=c1c(-c2ccccc2F)c2n(c(=O)n1CCCCN1CCC(c3noc4cc(F)ccc34)CC1)CCCC2` [Compound 7e, 4-(2-Fluorophenyl)-2-{4-[4-(6-fluoro-1,2-benzoxazol)-1-piperidyl]butyl}-5,6,7,8-tetrahydro-pyrido[1,2-c]pyrimidine-1,3-dione], the Ki on human 5-HT1A receptor is 36 ± 4.1 nM; on SERT protein, above 1000 nM.

Compound `Cc1ccc(-c2c3n(c(=O)n(CCCCN4CCC(c5noc6cc(F)ccc56)CC4)c2=O)CCCC3)cc1` [Compound 7f, 4-(4-Methylphenyl)-2-{4-[4-(6-fluoro-1,2-benzoxazol)-1-piperidyl]butyl}-5,6,7,8-tetrahydro-pyrido[1,2-c]pyrimidine-1,3-dione] registered a melting point of 107 to 110 °C. This compound also came in with a Ki at human 5-HT1A receptor of 52 ± 2.5 nM. Also, the affinity on SERT protein, expressed as Ki, was 1770 ± 180 nM.

For `O=c1c(-c2ccc(Cl)cc2)c2n(c(=O)n1CCCCN1CCC(c3noc4cc(F)ccc34)CC1)CCCC2` [Compound 7h, 4-(4-Chlorophenyl)-2-{4-[4-(6-fluoro-1,2-benzoxazol)-1-piperidyl]butyl}-5,6,7,8-tetrahydro-pyrido[1,2-c]pyrimidine-1,3-dione], the melting point is 116 to 120 °C. This compound came in with a Ki on human 5-HT1A receptor of 25 ± 3 nM. At SERT protein, this compound registered a Ki of 290 ± 22.7 nM.

For the compound `CCCN(CCC)C1CCc2cccc(O)c2C1` (stereo not drawn) [Compound 8-OH-DPAT, 8-Hydroxy-2-(di-n-propylamino)tetralin hydro-bromide, reference compound], the “Δt ± SEM, body temperature” value on 5-HT1A receptor (30 min) is −1.7 ± 0.2 ^b °C; at 5-HT1A receptor (60 min), −1.1 ± 0.2 ^b °C; on 5-HT1A receptor (90 min), −0.1 ± 0.1 °C; at 5-HT1A receptor (120 min), 0.3 ± 0.3 °C.
